Test systems include Bacillus subtilis; Acinetobacter baumannii; Escherichia coli; Pseudomonas aeruginosa; Staphylococcus aureus.
Holding throughout (assay): ≥ marks a high value that may be exact or a test limit, other limits are often not marked, values filed in µg/mL are converted to µM
Experiment [1] has as its system Candida albicans ATCC 2002.
Experiment [2] deals with Escherichia coli ATCC 25922.
Experiment [3] relates to Staphylococcus aureus ATCC 2592.
Experiment [4] concerns Candida albicans ATCC 90028.
Experiment [5] has as its system Staphylococcus aureus NCTC 8325.
Experiment [6] has as its system Pseudomonas aeruginosa Ps4.
In experiment [7] the test system is Pseudomonas aeruginosa CMCCB 10104.
Experiment [8] has as its system Pseudomonas aeruginosa PAO1.
For experiment [9], the system named is Salmonella enterica serovar Typhimurium.
Experiment [10] deals with Staphylococcus aureus ATCC 25923.

We go through 17 compounds from DBAASP.

In brackets after ≈: the same amount, converted by molar mass.

In the case of `CC[C@H](C)[C@H](NC(=O)[C@H](CCCCN)NC(=O)CNC(=O)[C@H](CC(C)C)NC(=O)[C@H](CC(C)C)NC(=O)[C@H](CO)NC(=O)[C@H](C)NC(=O)[C@H](CC(C)C)NC(=O)[C@H](CC(C)C)NC(=O)CNC(=O)CNC(=O)[C@H](CC(C)C)NC(=O)[C@@H](N)Cc1ccccc1)C(=O)O` [FLGGLLASLLGKI], the MIC is 2.38 µM (≈ 3.1 µg/mL) in the experiment with Bacillus subtilis, 1.23 µM (≈ 1.6 µg/mL) in experiment [1], 19.2 µM (≈ 25 µg/mL) in experiment [2] and 2.38 µM (≈ 3.1 µg/mL) in experiment [3].

In the case of `CC[C@H](C)[C@H](NC(=O)[C@H](CC(C)C)NC(=O)[C@H](CC(N)=O)NC(=O)[C@@H](NC(=O)[C@H](CC(C)C)NC(=O)[C@@H](NC(=O)[C@@H]1CCCN1C(=O)[C@H](CC(C)C)NC(=O)[C@@H](N)Cc1ccccc1)[C@@H](C)CC)[C@@H](C)CC)C(=O)N[C@@H](Cc1cnc[nH]1)C(=O)N[C@@H](CCCCN)C(=O)NCC(=O)N[C@@H](CC(C)C)C(=O)N[C@@H](CC(C)C)C(N)=O` [FLPILINLIHKGLL], the values for the MIC in [4], in [2] and in [5] were at least 150 µM, over 150 µM and at least 125 µM, respectively.

Regarding `CC[C@H](C)[C@H](NC(=O)[C@H](C)NC(=O)[C@H](CO)NC(=O)[C@H](CC(C)C)NC(=O)[C@@H](N)Cc1ccccc1)C(=O)N[C@H](C(=O)N[C@@H](CO)C(=O)N[C@@H](CC(C)C)C(=O)N[C@@H](CC(C)C)C(=O)NCC(=O)N[C@@H](CCCCN)C(=O)N[C@@H](CC(C)C)C(=O)N[C@@H](CC(C)C)C(N)=O)[C@@H](C)O` [FLSAITSLLGKLL], in experiment [5], the MIC is 6 µM (≈ 8.25 µg/mL).

Take `CC[C@H](C)[C@H](NC(=O)[C@H](CC(N)=O)NC(=O)[C@H](CCCN=C(N)N)NC(=O)[C@H](CCC(N)=O)NC(=O)[C@H](Cc1c[nH]c2ccccc12)NC(=O)[C@@H](N)Cc1ccccc1)C(=O)N[C@@H](Cc1ccccc1)C(=O)N[C@@H](CCCCN)C(=O)N[C@H](C(=O)N[C@@H](CCCN=C(N)N)C(N)=O)C(C)C` [FWQRNIFKVR]: the minimum inhibitory concentration (MIC) in [6] is at least 179 µM.

With `CC[C@H](C)[C@H](NC(=O)[C@H](CC(N)=O)NC(=O)[C@H](CCCN=C(N)N)NC(=O)[C@H](CCC(N)=O)NC(=O)[C@H](Cc1c[nH]c2ccccc12)NC(=O)[C@@H](N)Cc1ccccc1)C(=O)N[C@@H](CCCN=C(N)N)C(=O)N[C@@H](Cc1ccccc1)C(=O)N[C@H](C(=O)N[C@@H](CCCN=C(N)N)C(N)=O)C(C)C` [FWQRNIRFVR], the MIC in experiment [6] is at least 176 µM.

`CC[C@H](C)[C@H](NC(=O)[C@H](CC(N)=O)NC(=O)[C@H](CCCN=C(N)N)NC(=O)[C@H](CCC(N)=O)NC(=O)[C@H](Cc1c[nH]c2ccccc12)NC(=O)[C@@H](N)Cc1ccccc1)C(=O)N[C@@H](CCCN=C(N)N)C(=O)N[C@@H](Cc1c[nH]c2ccccc12)C(=O)N[C@@H](CCCN=C(N)N)C(=O)N[C@@H](CCCN=C(N)N)C(N)=O` [FWQRNIRWRR] had a minimum inhibitory concentration (MIC) in experiment [6] of at least 165 µM.

As for `CC[C@H](C)[C@H](NC(=O)[C@H](CC(N)=O)NC(=O)[C@H](CCCN=C(N)N)NC(=O)[C@H](CCC(N)=O)NC(=O)[C@H](Cc1c[nH]c2ccccc12)NC(=O)[C@@H](N)Cc1ccccc1)C(=O)N[C@@H](CO)C(=O)N[C@@H](CCCCN)C(=O)N[C@H](C(=O)N[C@@H](CCCN=C(N)N)C(N)=O)C(C)C` [FWQRNISKVR], the minimal inhibitory concentration (MIC) in experiment [6] was at least 187 µM.

In turn, `CC[C@H](C)[C@H](NC(=O)[C@H](CCCN=C(N)N)NC(=O)[C@H](Cc1c[nH]c2ccccc12)NC(=O)[C@@H](NC(=O)[C@H](CCCN=C(N)N)NC(=O)[C@H](Cc1c[nH]c2ccccc12)NC(=O)[C@@H](N)Cc1ccccc1)[C@@H](C)CC)C(=O)N[C@@H](Cc1c[nH]c2ccccc12)C(=O)N[C@@H](CCCN=C(N)N)C(N)=O` [FWRIWRIWR] had an MIC in experiment [6] of at least 44.1 µM.

As for `CC[C@H](C)[C@H](NC(=O)[C@H](CCCN=C(N)N)NC(=O)[C@@H](NC(=O)[C@H](CC(N)=O)NC(=O)[C@H](CCCN=C(N)N)NC(=O)[C@H](Cc1c[nH]c2ccccc12)NC(=O)[C@@H](N)Cc1ccccc1)[C@@H](C)CC)C(=O)N[C@@H](CCCN=C(N)N)C(=O)N[C@@H](CCCN=C(N)N)C(N)=O` [FWRNIRIRR], in [6], the MIC is at least 94.9 µM.

With `NC(=O)[C@H](CCCN=C(N)N)NC(=O)[C@H](CCCN=C(N)N)NC(=O)[C@H](Cc1c[nH]c2ccccc12)NC(=O)[C@H](CCCN=C(N)N)NC(=O)[C@H](Cc1c[nH]c2ccccc12)NC(=O)[C@@H](N)Cc1ccccc1` [FWRWRR], the MIC in experiment [6] is at least 124 µM.

In the case of `CC[C@H](C)[C@H](N)C(=O)N[C@@H](CC(C)C)C(=O)NCC(=O)N1CCC[C@H]1C(=O)N[C@H](C(=O)N[C@@H](CC(C)C)C(=O)N[C@@H](CO)C(=O)N[C@@H](CCSC)C(=O)N[C@H](C(=O)NCC(=O)N[C@@H](CO)C(=O)N[C@@H](C)C(=O)N[C@@H](CC(C)C)C(=O)NCC(=O)NCC(=O)N[C@@H](CC(C)C)C(=O)N[C@H](C(=O)N[C@@H](CCCCN)C(=O)N[C@@H](CCCCN)C(=O)N[C@H](C(N)=O)[C@@H](C)CC)[C@@H](C)CC)C(C)C)C(C)C` [ILGPVLSMVGSALGGLIKKI], the MIC in [1] turned out to be 1.02 µM (≈ 2 µg/mL); in experiment [2] it was 10.2 µM (≈ 20 µg/mL); in experiment [7], 2.03 µM (≈ 4 µg/mL); in experiment [3], 1.02 µM (≈ 2 µg/mL).

Take `CC[C@H](C)[C@H](N)C(=O)N[C@@H](CC(C)C)C(=O)N1CCC[C@H]1C(=O)N[C@@H](CC(C)C)C(=O)N[C@@H](CC(C)C)C(=O)N[C@@H](CC(C)C)C(=O)NCC(=O)N[C@@H](CCCCN)C(=O)N[C@H](C(=O)N[C@H](C(=O)N[C@H]1CSSC[C@@H](C(=O)O)NC(=O)[C@H](CCCCN)NC(=O)[C@H](CCCCN)NC(=O)[C@H]([C@@H](C)O)NC(=O)[C@H]([C@@H](C)CC)NC(=O)[C@H](C)NC1=O)C(C)C)C(C)C` [ILPLLLGKVVCAITKKC]: the minimal inhibitory concentration (MIC) in experiment [2] came out at 30 µM (≈ 54.3 µg/mL); in [5] it was 7 µM (≈ 12.7 µg/mL).

Turning to `CC[C@H](C)[C@H](N)C(=O)N[C@@H](CC(C)C)C(=O)N1CCC[C@H]1C(=O)N[C@@H](CC(C)C)C(=O)N[C@H](C(=O)NCC(=O)N[C@@H](CC(N)=O)C(=O)N[C@@H](CC(C)C)C(=O)N[C@@H](CC(C)C)C(=O)N[C@@H](CC(N)=O)C(=O)N[C@@H](CC(=O)O)C(=O)N[C@@H](CC(C)C)C(=O)N[C@@H](CC(C)C)C(N)=O)C(C)C` [ILPLVGNLLNDLL], the MIC in experiment [2] was over 100 µM; in experiment [5], at least 100 µM.

Take `CC[C@H](C)[C@H](N)C(=O)N[C@@H](CC(N)=O)C(=O)N[C@@H](Cc1c[nH]c2ccccc12)C(=O)N[C@@H](CCCCN)C(=O)NCC(=O)N[C@H](C(=O)N[C@@H](C)C(=O)N[C@@H](C)C(=O)N[C@@H](CCSC)C(=O)N[C@@H](CCCCN)C(=O)N[C@@H](CCCCN)C(=O)N[C@@H](CC(C)C)C(=O)N[C@@H](CC(C)C)C(N)=O)[C@@H](C)CC` [INWKGIAAMKKLL]: the MIC came out at 5.05 µM (≈ 7.5 µg/mL) in [1], 10.1 µM (≈ 15 µg/mL) in experiment [2] and 2.49 µM (≈ 3.7 µg/mL) in [3].

In the case of `CC[C@H](C)[C@H](NC(=O)[C@H](CO)NC(=O)CNC(=O)[C@@H](NC(=O)[C@@H](N)C(C)C)[C@@H](C)CC)C(=O)N[C@@H](CC(C)C)C(=O)NCC(=O)N[C@@H](C)C(=O)N[C@@H](CC(C)C)C(=O)N[C@@H](C)C(=O)N[C@@H](CO)C(=O)NCC(=O)N[C@@H](CC(C)C)C(=O)N1CCC[C@H]1C(=O)N[C@H](C(=O)N[C@@H](CC(C)C)C(=O)N[C@H](C(=O)N[C@@H](CO)C(=O)N[C@@H](Cc1c[nH]c2ccccc12)C(=O)N[C@H](C(=O)N[C@@H](CCCCN)C(=O)N[C@@H](CC(N)=O)C(=O)N[C@@H](CCCN=C(N)N)C(N)=O)[C@@H](C)CC)[C@@H](C)CC)[C@@H](C)O` [VIGSILGALASGLPTLISWIKNR], the MIC in [4] worked out at 25 µM (≈ 59.5 µg/mL); in experiment [2] it was 25 µM (≈ 59.5 µg/mL); in experiment [5] it was 6 µM (≈ 14.3 µg/mL).

Consider `CC(C)[C@H](N)C(=O)N[C@@H](CCCCN)C(=O)N[C@@H](CCCN=C(N)N)C(=O)N[C@@H](Cc1ccccc1)C(=O)N[C@@H](CCCCN)C(=O)N[C@@H](CCCCN)C(=O)N[C@@H](Cc1ccccc1)C(=O)N[C@@H](Cc1ccccc1)C(=O)N[C@@H](CCCN=C(N)N)C(=O)N[C@@H](CCCCN)C(=O)N[C@@H](Cc1ccccc1)C(=O)N[C@@H](CCCCN)C(=O)N[C@@H](CCCCN)C(=O)N[C@@H](CO)C(=O)N[C@H](C(N)=O)C(C)C` [VKRFKKFFRKFKKSV], for which the MIC in the experiment on Bacillus subtilis was at least 50.7 µM; in experiment [1], 4.75 µM (≈ 9.38 µg/mL); in experiment [2], 19 µM (≈ 37.5 µg/mL); in [3], at least 50.7 µM.

Take `CC[C@H](C)[C@H](NC(=O)[C@H](CCCN=C(N)N)NC(=O)[C@@H](NC(=O)[C@H](CCCN=C(N)N)NC(=O)[C@H](Cc1c[nH]c2ccccc12)NC(=O)[C@H](CCC(N)=O)NC(=O)[C@@H](N)C(C)C)[C@@H](C)CC)C(=O)N[C@@H](C)C(=O)N[C@H](C(=O)N[C@H](C(=O)N[C@@H](CCCN=C(N)N)C(=O)N[C@@H](C)C(=O)O)[C@@H](C)CC)C(C)C` [VQWRIRIAVIRA]: the MIC with Acinetobacter baumannii was 21.6 µM (≈ 32 µg/mL); in experiment [2], 5.4 µM (≈ 8 µg/mL); with Escherichia coli, 43.2 µM (≈ 64 µg/mL); in experiment [8] it was 21.6 µM (≈ 32 µg/mL); against Pseudomonas aeruginosa it was 30.6 µM (≈ 45.3 µg/mL); in [9], 2.7 µM (≈ 4 µg/mL). Besides, the minimal inhibitory concentration (MIC) came out at 5.4 µM (≈ 8 µg/mL) in experiment [10] and 15.3 µM (≈ 22.6 µg/mL) against Staphylococcus aureus.

Broadly, the MIC is the least concentration at which growth counts as inhibited.
